In ChEMBL document CHEMBL1201862, “PubChem BioAssay data set” (2004):
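Tested at 5 concentrations; 48 h exposure; 96-well plates; endpoints linearly interpolated, else capped at highest concentration. GI50 marks 50% less growth.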 Active and inactive are the calls of the source. Rule as the data show it: active = GI50 up to about 1.1 µM and inactive = higher.

How the values were obtained:
Test in all cases: NCI-60 cell line screen, 48 h
[1] = system: 786-0
[2] = system: A498
[3] = system: A549
[4] = system: ACHN
[5] = system: BT-549
[6] = system: CAKI-1
[7] = system: CCRF-CEM
[8] = system: COLO 205
[9] = system: DU-145
[10] = system: EKVX
[11] = system: HCT-116
[12] = system: HOP-62
[13] = system: HOP-92
[14] = system: HT-29
[15] = system: Hs-578T
[16] = system: IGROV-1
[17] = system: K562
[18] = system: KM12
[19] = system: LOX IMVI
[20] = system: M14
[21] = system: MCF7
[22] = system: MDA-MB-231
[23] = system: MDA-MB-435
[24] = system: MDA-N
[25] = system: MOLT-4
[26] = system: Malme-3M
[27] = system: NCI-H226
[28] = system: NCI-H23
[29] = system: NCI-H522
[30] = system: NCI/ADR-RES
[31] = system: OVCAR-3
[32] = system: OVCAR-5
[33] = system: OVCAR-8
[34] = system: PC-3
[35] = system: RPMI-8226
[36] = system: RXF 393
[37] = system: SF-268
[38] = system: SF-295
[39] = system: SK-MEL-28
[40] = system: SK-MEL-2
[41] = system: SK-MEL-5
[42] = system: SK-OV-3
[43] = system: SN12C
[44] = system: SNB-75
[45] = system: SR
[46] = system: SW-620
[47] = system: T47D
[48] = system: TK-10
[49] = system: U-251
[50] = system: UACC-257
[51] = system: UACC-62
[52] = system: UO-31
[53] = system: HCC 2998
[54] = system: HCT-15
[55] = system: HL-60
[56] = system: NCI-H460
[57] = system: OVCAR-4
[58] = system: SF-539
[59] = system: SNB-19

COC(=O)c1c(C#N)[nH]c(-c2ccsc2)c1C(=O)OC
GI50 [1]: > 100 µM (inactive)
GI50 [2]: > 100 µM (inactive)
GI50 [3]: > 100 µM (inactive)
GI50 [4]: > 100 µM (inactive)
GI50 [5]: > 100 µM (inactive)
GI50 [6]: 33.4 µM (inactive)
GI50 [7]: > 100 µM (inactive)
GI50 [8]: > 100 µM (inactive)
GI50 [9]: > 100 µM (inactive)
GI50 [10]: > 100 µM (inactive)
GI50 [11]: > 100 µM (inactive)
GI50 [12]: > 100 µM (inactive)
GI50 [13]: 51.6 µM (inactive)
GI50 [14]: > 100 µM (inactive)
GI50 [15]: > 100 µM (inactive)
GI50 [16]: > 100 µM (inactive)
GI50 [17]: 78 µM (inactive)
GI50 [18]: > 100 µM (inactive)
GI50 [19]: > 100 µM (inactive)
GI50 [20]: > 100 µM (inactive)
GI50 [21]: > 100 µM (inactive)
GI50 [22]: > 100 µM (inactive)
GI50 [23]: > 100 µM (inactive)
GI50 [24]: > 100 µM (inactive)
GI50 [25]: > 100 µM (inactive)
GI50 [26]: > 100 µM (inactive)
GI50 [27]: > 100 µM (inactive)
GI50 [28]: > 100 µM (inactive)
GI50 [29]: > 100 µM (inactive)
GI50 [30]: > 100 µM (inactive)
GI50 [31]: > 100 µM (inactive)
GI50 [32]: > 100 µM (inactive)
GI50 [33]: > 100 µM (inactive)
GI50 [34]: 70.6 µM (inactive)
GI50 [35]: 40.4 µM (inactive)
GI50 [36]: > 100 µM (inactive)
GI50 [37]: > 100 µM (inactive)
GI50 [38]: > 100 µM (inactive)
GI50 [39]: > 100 µM (inactive)
GI50 [40]: > 100 µM (inactive)
GI50 [41]: 39 µM (inactive)
GI50 [42]: > 100 µM (inactive)
GI50 [43]: > 100 µM (inactive)
GI50 [44]: > 100 µM (inactive)
GI50 [45]: > 100 µM (inactive)
GI50 [46]: > 100 µM (inactive)
GI50 [47]: 37.1 µM (inactive)
GI50 [48]: > 100 µM (inactive)
GI50 [49]: > 100 µM (inactive)
GI50 [50]: 40.6 µM (inactive)
GI50 [51]: 76 µM (inactive)
GI50 [52]: 56.4 µM (inactive)

c1ccc2c(c1)cc1c3[nH]c4ccccc4c3ccn21
GI50 [1]: > 10 µM (inactive)
GI50 [3]: > 10 µM (inactive)
GI50 [4]: > 10 µM (inactive)
GI50 [5]: > 10 µM (inactive)
GI50 [6]: > 10 µM (inactive)
GI50 [7]: 8.32 µM (inactive)
GI50 [8]: 1.61 µM (inactive)
GI50 [9]: > 10 µM (inactive)
GI50 [10]: > 10 µM (inactive)
GI50 [53]: > 10 µM (inactive)
GI50 [11]: 6.92 µM (inactive)
GI50 [54]: > 10 µM
GI50 [55]: 0.687 µM (active)
GI50 [12]: > 10 µM (inactive)
GI50 [13]: > 10 µM (inactive)
GI50 [14]: > 10 µM (inactive)
GI50 [15]: > 10 µM (inactive)
GI50 [16]: > 10 µM (inactive)
GI50 [17]: > 10 µM (inactive)
GI50 [18]: > 10 µM (inactive)
GI50 [19]: > 10 µM (inactive)
GI50 [20]: > 10 µM (inactive)
GI50 [21]: 1.19 µM (inactive)
GI50 [22]: > 10 µM (inactive)
GI50 [23]: > 10 µM (inactive)
GI50 [24]: > 10 µM (inactive)
GI50 [25]: > 10 µM (inactive)
GI50 [26]: 1.65 µM (inactive)
GI50 [27]: > 10 µM (inactive)
GI50 [28]: > 10 µM (inactive)
GI50 [56]: > 10 µM (inactive)
GI50 [29]: > 10 µM (inactive)
GI50 [30]: > 10 µM (inactive)
GI50 [31]: > 10 µM (inactive)
GI50 [57]: > 10 µM (inactive)
GI50 [32]: > 10 µM (inactive)
GI50 [33]: > 10 µM (inactive)
GI50 [34]: > 10 µM (inactive)
GI50 [35]: 4.59 µM (inactive)
GI50 [36]: > 10 µM (inactive)
GI50 [37]: > 10 µM (inactive)
GI50 [38]: > 10 µM (inactive)
GI50 [58]: > 10 µM (inactive)
GI50 [39]: > 10 µM (inactive)
GI50 [40]: > 10 µM (inactive)
GI50 [41]: > 10 µM (inactive)
GI50 [42]: > 10 µM (inactive)
GI50 [43]: > 10 µM (inactive)
GI50 [59]: > 10 µM (inactive)
GI50 [44]: > 10 µM (inactive)
GI50 [45]: > 10 µM (inactive)
GI50 [46]: 6.78 µM (inactive)
GI50 [47]: > 10 µM (inactive)
GI50 [48]: > 10 µM (inactive)
GI50 [49]: > 10 µM (inactive)
GI50 [50]: > 10 µM (inactive)
GI50 [51]: > 10 µM (inactive)
GI50 [52]: > 10 µM (inactive)

CCN(CC)Cc1nc(C2CCC([N+](=O)[O-])O2)no1 (stereo not drawn)
GI50 [1]: 40 µM (inactive)
GI50 [3]: 39.8 µM (inactive)
GI50 [4]: 98.2 µM (inactive)
GI50 [5]: 23.3 µM (inactive)
GI50 [6]: 72.8 µM (inactive)
GI50 [7]: 31.9 µM (inactive)
GI50 [8]: 16.6 µM (inactive)
GI50 [9]: 25.7 µM (inactive)
GI50 [10]: > 100 µM (inactive)
GI50 [53]: 20.6 µM (inactive)
GI50 [11]: 24.3 µM (inactive)
GI50 [54]: 19.4 µM
GI50 [55]: 16.6 µM (inactive)
GI50 [12]: 35.7 µM (inactive)
GI50 [13]: > 100 µM (inactive)
GI50 [14]: 17 µM (inactive)
GI50 [15]: 31.6 µM (inactive)
GI50 [16]: 41.5 µM (inactive)
GI50 [17]: 36.2 µM (inactive)
GI50 [18]: 26.5 µM (inactive)
GI50 [19]: 31.4 µM (inactive)
GI50 [20]: 14.5 µM (inactive)
GI50 [21]: 15.6 µM (inactive)
GI50 [22]: 26.7 µM (inactive)
GI50 [23]: 18.1 µM (inactive)
GI50 [24]: 17.4 µM (inactive)
GI50 [25]: 53.5 µM (inactive)
GI50 [26]: 15.9 µM (inactive)
GI50 [27]: 67.8 µM (inactive)
GI50 [28]: 19.3 µM (inactive)
GI50 [56]: 20.5 µM (inactive)
GI50 [29]: 15.9 µM (inactive)
GI50 [30]: 26.7 µM (inactive)
GI50 [31]: 23.8 µM (inactive)
GI50 [57]: 77.3 µM (inactive)
GI50 [32]: 29.3 µM (inactive)
GI50 [33]: 30.1 µM (inactive)
GI50 [34]: 27.3 µM (inactive)
GI50 [35]: 31.3 µM (inactive)
GI50 [36]: 31 µM (inactive)
GI50 [37]: 24.5 µM (inactive)
GI50 [38]: 30.1 µM (inactive)
GI50 [58]: 28.2 µM (inactive)
GI50 [39]: 20.3 µM (inactive)
GI50 [40]: 21.7 µM (inactive)
GI50 [41]: 16.4 µM (inactive)
GI50 [42]: > 100 µM (inactive)
GI50 [43]: 47.1 µM (inactive)
GI50 [59]: 28.6 µM (inactive)
GI50 [44]: 16.6 µM (inactive)
GI50 [45]: 28.2 µM (inactive)
GI50 [46]: 19.4 µM (inactive)
GI50 [47]: 27.2 µM (inactive)
GI50 [48]: > 100 µM (inactive)
GI50 [49]: 28.5 µM (inactive)
GI50 [50]: 19.9 µM (inactive)
GI50 [51]: 14.8 µM (inactive)
GI50 [52]: > 100 µM (inactive)
